Test results published in patent US20020137929A1, “1 - (3-heterocyclylphenyl) isothiourea, -isourea, -guanidine and -amidine herbicidal agents” (Intellectual Property Department, BASF Aktiengesellschaft, priority 1998, published 2002).

Assays:
CASOB (Sicklepod) = assay: Postemergence herbicidal evaluation; assay type: in vivo, Cassia obtusifolia; conditions: postemergence
Outline: (§1)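 Two-week seedlings sprayed postemergence at 40 psi; formulation: 1:1 acetone/water, 0.5% TWEEN 20; application ≈0.0156–0.500 kg/ha. Greenhouse grow-out, then 0–9 visual scoring at 4–5 weeks.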

ZEAMX (Corn, Field) = assay: Postemergence herbicidal evaluation; assay type: in vivo, Zea mays; conditions: postemergence
Outline: as §1

ORYSAT (Rice, Tebonnet) [1] = assay: Preemergence herbicidal evaluation; assay type: in vivo, Oryza sativa, (L.) Tebonnet; conditions: rated 4-5 weeks after treatment
Outline: (§2)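 In this greenhouse assay, monocot and dicot seeds are planted in soil and treated prior to emergence with an aqueous acetone spray (about 0.0156-0.500 kg/ha). Plants are assessed visually against control on a 0-9 scale after 4-5 weeks.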

MOOVA (Monochoria) = assay: Preemergence weed control under flooded paddy conditions; assay type: in vivo, Monochoria vaginalis; conditions: rated 3-4 weeks after treatment
Outline: (§3)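 Ratings on a 0-9 visual scale cover stand, vigor, malformation, size, chlorosis and overall appearance relative to a control, taken three to four weeks post-treatment. Application was into flood water over freshly sown silt loam at roughly 0.0313 to 0.500 kg/ha.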

SETVI (Foxtail, Green) = assay: Preemergence herbicidal evaluation; assay type: in vivo, Setaria viridis; conditions: rated 4-5 weeks after treatment
Outline: as §2

AMBEL (Ragweed, Common) = assay: Preemergence herbicidal evaluation; assay type: in vivo, Ambrosia artemisifolia; conditions: rated 4-5 weeks after treatment
Outline: as §2

GALAP (Galium) = assay: Postemergence herbicidal evaluation; assay type: in vivo, Galium aparine; conditions: postemergence
Outline: as §1

[2] = system: CHEAL (Lambsquarters, Common); assay: Postemergence herbicidal evaluation; assay type: in vivo, Chenopodium album; conditions: postemergence
Outline: as §1

ORYSAT (Rice, Tebonnet) [3] = assay: Postemergence herbicidal evaluation; assay type: in vivo, Oryza sativa, (L.) Tebonnet; conditions: postemergence
Outline: as §1

[4] = system: GLXMAW (Soybean, Williams); assay: Preemergence herbicidal evaluation; assay type: in vivo, Glycine max, (L.) Merr. cv Williams; conditions: rated 4-5 weeks after treatment
Outline: as §2

CYPSE (Flatsedge) = assay: Preemergence weed control under flooded paddy conditions; assay type: in vivo, Cyperus serotinus; conditions: rated 3-4 weeks after treatment
Outline: as §3

[5] = rate 0.0313 kg/ha, rating scale 0-9
[6] = rate 0.0625 kg/ha, rating scale 0-9
[7] = rate 0.1250 kg/ha, rating scale 0-9
[8] = rate 0.2500 kg/ha, rating scale 0-9

CCOC(=O)CN1C(=O)C(COC)SC1=Nc1cc(-n2c(=O)cc(C(F)(F)F)n(C)c2=O)c(F)cc1Cl (centres unmarked) [Compound 156, Ethyl 2-{{2-chloro-5-[3,6-dihydro-3-methyl-2,6-dioxo-4-(trifluoromethyl)-1(2H)-pyrimidinyl]-4-fluorophenyl}imino}-5-(methoxymethyl)-4-oxo-3-thiazolidine-acetate]
Herbicidal rating CASOB (CASOB (Sicklepod); rate 0.0156 kg/ha): 0.0
Herbicidal rating CASOB (CASOB (Sicklepod); rate 0.0313 kg/ha): 0.0
Herbicidal rating CASOB (CASOB (Sicklepod); rate 0.0625 kg/ha): 1.0
Herbicidal rating ZEAMX (ZEAMX (Corn, Field); rate 0.0156 kg/ha): 4.5
Herbicidal rating ZEAMX (ZEAMX (Corn, Field); rate 0.0313 kg/ha): 4.5
Herbicidal rating ZEAMX (ZEAMX (Corn, Field); rate 0.0625 kg/ha): 4.5
Preemergence herbicidal rating ORYSAT (ORYSAT (Rice, Tebonnet) [1]; [5]): 0.0
Preemergence herbicidal rating ORYSAT (ORYSAT (Rice, Tebonnet) [1]; [6]): 0.0
Preemergence herbicidal rating ORYSAT (ORYSAT (Rice, Tebonnet) [1]; [7]): 0.0
Preemergence herbicidal rating ORYSAT (ORYSAT (Rice, Tebonnet) [1]; [8]): 3.0
herbicidal effect rating, MOOVA (MOOVA (Monochoria); 0.2500 kg/ha): 0.0
Preemergence herbicidal rating SETVI (SETVI (Foxtail, Green); [5]): 0.0
Preemergence herbicidal rating SETVI (SETVI (Foxtail, Green); [6]): 2.0
Preemergence herbicidal rating SETVI (SETVI (Foxtail, Green); [7]): 2.0
Preemergence herbicidal rating SETVI (SETVI (Foxtail, Green); [8]): 9.0
Preemergence herbicidal rating AMBEL (AMBEL (Ragweed, Common); [5]): 0.0
Preemergence herbicidal rating AMBEL (AMBEL (Ragweed, Common); [6]): 0.0
Preemergence herbicidal rating AMBEL (AMBEL (Ragweed, Common); [7]): 5.0
Preemergence herbicidal rating AMBEL (AMBEL (Ragweed, Common); [8]): 9.0
Herbicidal rating GALAP (GALAP (Galium); rate 0.0156 kg/ha): 0.0
Herbicidal rating GALAP (GALAP (Galium); rate 0.0313 kg/ha): 0.0
Herbicidal rating GALAP (GALAP (Galium); rate 0.0625 kg/ha): 3.0
Herbicidal rating CHEAL ([2]; rate 0.0156 kg/ha): 9.0
Herbicidal rating CHEAL ([2]; rate 0.0313 kg/ha): 9.0
Herbicidal rating CHEAL ([2]; rate 0.0625 kg/ha): 9.0
Herbicidal rating ORYSAT (ORYSAT (Rice, Tebonnet) [3]; rate 0.0156 kg/ha): 0.5
Herbicidal rating ORYSAT (ORYSAT (Rice, Tebonnet) [3]; rate 0.0313 kg/ha): 0.5
Herbicidal rating ORYSAT (ORYSAT (Rice, Tebonnet) [3]; rate 0.0625 kg/ha): 2.0
Preemergence herbicidal rating GLXMAW [4, 5]: 0.0
Preemergence herbicidal rating GLXMAW [4, 6]: 0.0
Preemergence herbicidal rating GLXMAW [4, 7]: 0.0
Preemergence herbicidal rating GLXMAW [4, 8]: 7.0
herbicidal effect rating, CYPSE (CYPSE (Flatsedge); 0.2500 kg/ha): 0.0

CCN1C(=O)CSC1=Nc1cc(-n2c(=O)cc(C(F)(F)F)n(C)c2=O)c(F)cc1Cl [Compound 159, 3-{4-Chloro-5-[(3-ethyl-4-oxo-2-thiazolidinyl-idene)amino]-2-fluorophenyl}-1-methyl-6-(trifluoromethyl)-2,4(1H,3H)-pyrimidinedione]
Herbicidal rating CASOB (CASOB (Sicklepod); rate 0.0156 kg/ha): 0.0
Herbicidal rating CASOB (CASOB (Sicklepod); rate 0.0313 kg/ha): 1.0
Herbicidal rating CASOB (CASOB (Sicklepod); rate 0.0625 kg/ha): 7.0
Herbicidal rating ZEAMX (ZEAMX (Corn, Field); rate 0.0156 kg/ha): 5.0
Herbicidal rating ZEAMX (ZEAMX (Corn, Field); rate 0.0313 kg/ha): 6.5
Herbicidal rating ZEAMX (ZEAMX (Corn, Field); rate 0.0625 kg/ha): 7.0
Preemergence herbicidal rating ORYSAT (ORYSAT (Rice, Tebonnet) [1]; 0.0156 kg/ha): 0.0
Preemergence herbicidal rating ORYSAT (ORYSAT (Rice, Tebonnet) [1]; 0.0313 kg/ha): 0.0
Preemergence herbicidal rating ORYSAT (ORYSAT (Rice, Tebonnet) [1]; 0.0625 kg/ha): 0.0
Preemergence herbicidal rating ORYSAT (ORYSAT (Rice, Tebonnet) [1]; 0.1250 kg/ha): 1.0
Preemergence herbicidal rating ORYSAT (ORYSAT (Rice, Tebonnet) [1]; 0.2500 kg/ha): 2.0
herbicidal effect rating, MOOVA (MOOVA (Monochoria); 0.0313 kg/ha): 0.0
herbicidal effect rating, MOOVA (MOOVA (Monochoria); 0.0625 kg/ha): 3.0
herbicidal effect rating, MOOVA (MOOVA (Monochoria); 0.1250 kg/ha): 6.0
herbicidal effect rating, MOOVA (MOOVA (Monochoria); 0.2500 kg/ha): 9.0
Preemergence herbicidal rating SETVI (SETVI (Foxtail, Green); 0.0156 kg/ha): 1.0
Preemergence herbicidal rating SETVI (SETVI (Foxtail, Green); 0.0313 kg/ha): 8.0
Preemergence herbicidal rating SETVI (SETVI (Foxtail, Green); 0.0625 kg/ha): 7.0
Preemergence herbicidal rating SETVI (SETVI (Foxtail, Green); 0.1250 kg/ha): 9.0
Preemergence herbicidal rating SETVI (SETVI (Foxtail, Green); 0.2500 kg/ha): 7.0
Preemergence herbicidal rating AMBEL (AMBEL (Ragweed, Common); 0.0156 kg/ha): 1.0
Preemergence herbicidal rating AMBEL (AMBEL (Ragweed, Common); 0.0313 kg/ha): 3.0
Preemergence herbicidal rating AMBEL (AMBEL (Ragweed, Common); 0.0625 kg/ha): 4.0
Preemergence herbicidal rating AMBEL (AMBEL (Ragweed, Common); 0.1250 kg/ha): 6.0
Preemergence herbicidal rating AMBEL (AMBEL (Ragweed, Common); 0.2500 kg/ha): 8.0
Herbicidal rating GALAP (GALAP (Galium); rate 0.0156 kg/ha): 0.0
Herbicidal rating GALAP (GALAP (Galium); rate 0.0313 kg/ha): 1.0
Herbicidal rating GALAP (GALAP (Galium); rate 0.0625 kg/ha): 4.0
Herbicidal rating CHEAL ([2]; rate 0.0156 kg/ha): 3.0
Herbicidal rating CHEAL ([2]; rate 0.0313 kg/ha): 4.0
Herbicidal rating CHEAL ([2]; rate 0.0625 kg/ha): 5.0
Herbicidal rating ORYSAT (ORYSAT (Rice, Tebonnet) [3]; rate 0.0156 kg/ha): 1.5
Herbicidal rating ORYSAT (ORYSAT (Rice, Tebonnet) [3]; rate 0.0313 kg/ha): 2.0
Herbicidal rating ORYSAT (ORYSAT (Rice, Tebonnet) [3]; rate 0.0625 kg/ha): 2.0
Preemergence herbicidal rating GLXMAW ([4]; 0.0156 kg/ha): 1.0
Preemergence herbicidal rating GLXMAW ([4]; 0.0313 kg/ha): 0.0
Preemergence herbicidal rating GLXMAW ([4]; 0.0625 kg/ha): 1.0
Preemergence herbicidal rating GLXMAW ([4]; 0.1250 kg/ha): 2.0
Preemergence herbicidal rating GLXMAW ([4]; 0.2500 kg/ha): 3.0
herbicidal effect rating, CYPSE (CYPSE (Flatsedge); 0.0625 kg/ha): 0.0
herbicidal effect rating, CYPSE (CYPSE (Flatsedge); 0.1250 kg/ha): 0.0
